Test results taken from ChEMBL document CHEMBL1131444, “The 16,17-double bond is needed for irreversible inhibition of human cytochrome p45017alpha by abiraterone (17-(3-pyridyl)androsta-5, 16-dien-3beta-ol) and related steroidal inhibitors” (J Med Chem, 1998).

Target: T1, Steroid 17-alpha-hydroxylase/17,20 lyase (Homo sapiens, UniProt P05093)
T1 sequence (P05093 whole entry): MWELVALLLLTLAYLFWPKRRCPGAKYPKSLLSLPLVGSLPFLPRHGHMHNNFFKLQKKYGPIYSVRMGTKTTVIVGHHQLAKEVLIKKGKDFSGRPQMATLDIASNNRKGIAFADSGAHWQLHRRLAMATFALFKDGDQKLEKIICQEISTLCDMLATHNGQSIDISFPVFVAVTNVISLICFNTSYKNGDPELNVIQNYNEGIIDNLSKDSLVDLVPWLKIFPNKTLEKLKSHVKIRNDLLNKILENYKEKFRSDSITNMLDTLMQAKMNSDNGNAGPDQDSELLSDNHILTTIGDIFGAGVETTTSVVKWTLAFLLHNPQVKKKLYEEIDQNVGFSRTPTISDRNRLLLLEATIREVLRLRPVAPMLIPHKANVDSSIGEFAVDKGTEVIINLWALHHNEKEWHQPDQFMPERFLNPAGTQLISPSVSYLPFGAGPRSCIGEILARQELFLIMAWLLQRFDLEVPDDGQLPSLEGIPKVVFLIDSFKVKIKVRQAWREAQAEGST
Assay: Inhibition of human progesterone 17-alpha-hydroxylase.

Structure (SMILES)	IC50
C[C@]12CCC(=O)C=C1CCC1C2CC[C@]2(C)C(c3cccnc3)=CCC12 (stereo not given in full)	3 nM
C[C@]12CCC3C(CC=C4C[C@@H](O)CC[C@@]43C)C1CCC2c1ccncc1 (single isomer, unassigned)	27 nM

The remaining lines, values ahead:

IC50	Structure (SMILES)
260 nM	C[C@]12CC[C@H](O)C[C@@H]1CC[C@@H]1[C@@H]2CC[C@@]2(C)[C@H]1C[C@H]1O[C@]12c1cccnc1
74 nM	C[C@]12CC[C@H](O)C[C@@H]1CC[C@@H]1[C@@H]2CC[C@]2(C)[C@@H](c3cccnc3)CC[C@@H]12
5 nM	C[C@]12CC[C@H](O)C[C@@H]1CC[C@@H]1[C@@H]2CC[C@]2(C)C(c3cccnc3)CC[C@@H]12 (stereo not given in full)
